Assay results from PubChem BioAssay AID248 (DTP/NCI, 2004).
“And” between values parts separate entries of the source, which are not always exact repeats. Equal entries are not always repeated. Inconclusive results and toxic doses are left out. Cut-off read from the data, not from the text of the source: active = T/C of 150% or more; inactive = T/C below 125%.

Test system: L1210 leukemia ip in BDF1 mice, survival T/C
Experiment: NCI In Vivo Anticancer Drug Screen. Data for tumor model L1210 Leukemia (intraperitoneal) in B6D2F1 (BDF1) mice
Details: endpoint: mean survival time, higher = longer survival
Outline: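 Transplanted-tumor mice were given test agent; controls received vehicle only. Survival readings from the two groups were divided (treated over control).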

[1] = dose: 100.0 mg/kg/injection, schedule: Q04DX003 (ip), vehicle: saline with Tween-80
[2] = dose: 200.0 mg/kg/injection, schedule: Q04DX003 (ip), vehicle: saline with Tween-80
[3] = dose: 400.0 mg/kg/injection, schedule: Q04DX003 (ip), vehicle: saline with Tween-80
[4] = dose: 75.0 mg/kg/injection, schedule: Q01DX001 (ip), vehicle: saline
[5] = dose: 150.0 mg/kg/injection, schedule: Q01DX001 (ip), vehicle: saline
[6] = dose: 150.0 mg/kg/injection, schedule: Q04DX003 (ip), vehicle: saline
[7] = dose: 300.0 mg/kg/injection, schedule: Q01DX001 (ip), vehicle: saline
[8] = dose: 100.0 mg/kg/injection, schedule: Q01DX001 (ip), vehicle: saline
[9] = dose: 200.0 mg/kg/injection, schedule: Q01DX001 (ip), vehicle: saline
[10] = dose: 100.0 mg/kg/injection, schedule: Q04DX003 (ip), vehicle: saline
[11] = dose: 100.0 mg/kg/injection, schedule: Q01DX009 (ip), vehicle: saline
[12] = dose: 25.0 mg/kg/injection, schedule: Q04DX003 (ip), vehicle: saline with Tween-80
[13] = dose: 50.0 mg/kg/injection, schedule: Q04DX003 (ip), vehicle: saline with Tween-80
[14] = dose: 400.0 mg/kg/injection, schedule: Q01DX001 (ip), vehicle: saline

Measured: T/C

CCOC(=O)c1ccccc1N=Nc1cc(OC)c(N)cc1OC
inactive: dose: 5.0 mg/kg/injection, schedule: Q01DX001 (ip), vehicle: other 101 % of control | dose: 10.0 mg/kg/injection, schedule: Q01DX001 (ip), vehicle: other 111 % of control | dose: 20.0 mg/kg/injection, schedule: Q01DX001 (ip), vehicle: other 114 % of control

CC(C)CCOC(c1ccc2c(c1)OCO2)C(C)Br (configuration not stated)
inactive: [1] 94 % of control | [2] 87 % of control | [3] 94 % of control

CC1NC(=O)NC1CCCCCC(=O)O (configuration not stated)
inactive: dose: 50.0 mg/kg/injection, schedule: Q01DX001 (ip), vehicle: Klucel (hydroxypropylcellulose) (HPC) 98 % of control | dose: 100.0 mg/kg/injection, schedule: Q01DX001 (ip), vehicle: Klucel (hydroxypropylcellulose) (HPC) 98 % of control | dose: 100.0 mg/kg/injection, schedule: Q01DX001 (ip), vehicle: carboxymethylcellulose (CMC) 97 % of control | dose: 200.0 mg/kg/injection, schedule: Q01DX001 (ip), vehicle: Klucel (hydroxypropylcellulose) (HPC) 96 % of control | dose: 200.0 mg/kg/injection, schedule: Q01DX001 (ip), vehicle: carboxymethylcellulose (CMC) 98 % of control | dose: 400.0 mg/kg/injection, schedule: Q01DX001 (ip), vehicle: carboxymethylcellulose (CMC) 97 % of control

BrC(c1ccccc1)C(Br)c1ccccc1 (configuration not stated)
inactive: dose: 100.0 mg/kg/injection, schedule: Q01DX009 (ip), vehicle: Klucel (hydroxypropylcellulose) (HPC) 86 % of control | dose: 100.0 mg/kg/injection, schedule: Q04DX003 (ip), vehicle: Klucel (hydroxypropylcellulose) (HPC) 92 % of control | dose: 200.0 mg/kg/injection, schedule: Q01DX009 (ip), vehicle: Klucel (hydroxypropylcellulose) (HPC) 96 % of control | dose: 200.0 mg/kg/injection, schedule: Q04DX003 (ip), vehicle: Klucel (hydroxypropylcellulose) (HPC) 94 % of control | dose: 400.0 mg/kg/injection, schedule: Q01DX009 (ip), vehicle: Klucel (hydroxypropylcellulose) (HPC) 91 % of control | dose: 400.0 mg/kg/injection, schedule: Q04DX003 (ip), vehicle: Klucel (hydroxypropylcellulose) (HPC) 100 % of control

O=C1c2ccccc2CC1(Br)Br
inactive: dose: 100.0 mg/kg/injection, schedule: Q04DX003 (ip), vehicle: other 96 % of control | dose: 200.0 mg/kg/injection, schedule: Q04DX003 (ip), vehicle: other 93 % of control

CCCCN(CCCC)C(=S)[S-].CCCCN(CCCC)C(=S)[S-].[Zn]
inactive: dose: 37.5 mg/kg/injection, schedule: Q01DX009 (ip), vehicle: saline 90 % of control | [4] 88 % of control | dose: 75.0 mg/kg/injection, schedule: Q01DX009 (ip), vehicle: saline 90 % of control | dose: 75.0 mg/kg/injection, schedule: Q04DX003 (ip), vehicle: saline 98 % of control | [5] 93 % of control | dose: 150.0 mg/kg/injection, schedule: Q01DX009 (ip), vehicle: saline 86 % of control | [6] 87 % of control | [7] 89 % of control | dose: 300.0 mg/kg/injection, schedule: Q04DX003 (ip), vehicle: saline 93 % of control

N=c1c2ccccc2c2ccccc2n1O
inactive: [1] 96 % of control | [2] 98 % of control | [3] 103 % of control

CC(N)C(=O)NC(CC(=O)O)C(=O)O (configuration not stated)
inactive: dose: 25.0 mg/kg/injection, schedule: Q04DX002 (ip), vehicle: saline 98 % of control | dose: 50.0 mg/kg/injection, schedule: Q04DX002 (ip), vehicle: saline 94 % of control | dose: 100.0 mg/kg/injection, schedule: Q04DX002 (ip), vehicle: saline 94 % of control

CC(=O)c1ccccc1C
inactive: [8] 104 % of control | [9] 112 % of control

Cn1nnnc1/N=C/c1ccccc1
inactive: [10] 105 % of control | dose: 200.0 mg/kg/injection, schedule: Q04DX003 (ip), vehicle: saline 94 % of control | dose: 400.0 mg/kg/injection, schedule: Q04DX003 (ip), vehicle: saline 94 % of control

C=CCNC(=O)CCl
inactive: dose: 25.0 mg/kg/injection, schedule: Q01DX009 (ip), vehicle: saline 100 % of control | dose: 25.0 mg/kg/injection, schedule: Q04DX003 (ip), vehicle: saline 97 % of control | dose: 50.0 mg/kg/injection, schedule: Q01DX009 (ip), vehicle: saline 99 % of control | dose: 66.0 mg/kg/injection, schedule: Q04DX003 (ip), vehicle: saline 104 % of control | [11] 95 % of control | [10] 106 % of control and 108 % of control | [6] 100 % of control

CC(C)(O)CNCCCN
inactive: [4] 96 % of control | [5] 94 % of control | [7] 102 % of control

N#CC(Nc1ccccc1)C1CC1c1ccccc1 (configuration not stated)
inactive: dose: 12.5 mg/kg/injection, schedule: Q01DX009 (ip), vehicle: saline with Tween-80 94 % of control | dose: 12.5 mg/kg/injection, schedule: Q04DX003 (ip), vehicle: saline with Tween-80 98 % of control | dose: 25.0 mg/kg/injection, schedule: Q01DX009 (ip), vehicle: saline with Tween-80 100 % of control | [12] 102 % of control | dose: 50.0 mg/kg/injection, schedule: Q01DX009 (ip), vehicle: saline with Tween-80 95 % of control | [13] 101 % of control

O=C(O)/C(=C/c1ccccc1)c1ccccc1
inactive: dose: 100.0 mg/kg/injection, schedule: Q04DX002 (ip), vehicle: saline with Tween-80 95 % of control and 96 % of control | dose: 200.0 mg/kg/injection, schedule: Q04DX002 (ip), vehicle: saline with Tween-80 96 % of control and 88 % of control

CS(=O)(=O)N1CC(O)CN(S(C)(=O)=O)CC(O)C1 (configuration not stated)
inactive: dose: 25.0 mg/kg/injection, schedule: Q04DX002 (ip), vehicle: Klucel (hydroxypropylcellulose) (HPC) 100 % of control | dose: 50.0 mg/kg/injection, schedule: Q04DX002 (ip), vehicle: Klucel (hydroxypropylcellulose) (HPC) 100 % of control | dose: 100.0 mg/kg/injection, schedule: Q04DX002 (ip), vehicle: Klucel (hydroxypropylcellulose) (HPC) 110 % of control

CC(C)N(C(=O)C1C2C=CC(C2)C1C(=O)N(C(C)C)C(C)C)C(C)C (configuration not stated)
inactive: [12] 98 % of control | [13] 98 % of control | [1] 106 % of control and 107 % of control

NC(CO)C(O)c1ccc(N=Nc2ccc(O)cc2)cc1 (configuration not stated)
inactive: [1] 90 % of control

CCc1ccc(/C=C/c2ccc[nH]2)[n+](C)c1
inactive: dose: 5.0 mg/kg/injection, schedule: Q01DX001 (ip), vehicle: carboxymethylcellulose (CMC) 94 % of control | dose: 10.0 mg/kg/injection, schedule: Q01DX001 (ip), vehicle: carboxymethylcellulose (CMC) 94 % of control | dose: 20.0 mg/kg/injection, schedule: Q01DX001 (ip), vehicle: carboxymethylcellulose (CMC) 89 % of control | dose: 40.0 mg/kg/injection, schedule: Q01DX001 (ip), vehicle: carboxymethylcellulose (CMC) 96 % of control | dose: 80.0 mg/kg/injection, schedule: Q01DX001 (ip), vehicle: carboxymethylcellulose (CMC) 91 % of control

Nc1ncnn1C(=O)OCc1ccccc1
inactive: [8] 98 % of control | [11] 89 % of control | [9] 112 % of control | dose: 200.0 mg/kg/injection, schedule: Q01DX009 (ip), vehicle: saline 96 % of control | [14] 93 % of control | dose: 400.0 mg/kg/injection, schedule: Q01DX009 (ip), vehicle: saline 100 % of control

O=S(=O)(CCN1CCCCC1)c1ccc(F)cc1
inactive: [8] 100 % of control | [9] 100 % of control

CC1CCCC1=O (configuration not stated)
inactive: dose: 50.0 mg/kg/injection, schedule: Q01DX001 (ip), vehicle: saline 96 % of control | [8] 93 % of control | [9] 93 % of control | [14] 93 % of control
